Measurements: patent publication US8507464B2, “Phosphoramidate alkylator prodrugs” (Threshold Pharmaceuticals, Inc., priority 2005, dated 2013)
≈ marks a conversion by molar mass, not a printed value. Read-outs that look alike come from different tables or passages of the source.

How the values were obtained:
[1] = system: H460 cells exposed as monolayers; assay: Clonogenic survival of monolayer cells (Example 35)
HT29 xenograft = assay: HT-29 xenograft mouse model with CDDP (Example 52); type: in vivo; settings: Group 2; tumor volumes at day 25; vs vehicle group; CDDP in saline IV alone
Description: Female CB17/SCID mice (purchased from Charles River, Cambridge, Mass.), 7-8 weeks of age, were allowed to acclimatize for at least three days, and handled under pathogen-free conditions. Human colon carcinoma cell line HT29 was obtained from the American Type Culture Collection. The cell lines were cultured and harvested as described in Example 47 and inoculated at 3×10^6 cells/animal in the peritoneal subcutaneous space. When the tumors grew to an average volume of 100 mm^3 (day 8), each group of mice (ten per group) was administered, for three weeks, as tabulated in the table below: Compound 25 in saline, administration route—i.p., administrated 2 h before CDDP on the days the combination therapy is scheduled and CDDP (in saline, IV).
The body weight and tumor volume were determined as described in Example 47. Data are based on tumor volumes at day 25 when tumors in the vehicle group had reached sufficient size to require that the mice be sacrificed.

[2] = system: H460 lung carcinoma spheroids; assay: Spheroid model, clonogenic survival; settings: read-out: IC90 H460 Spheroid 10% O2
spheroids = assay: Spheroid combination with cisplatin or daunorubicin, clonogenic survival; type: cell-based, human; settings: 2 h exposure
Description: The phosphoramidate alkylator prodrug was combined simultaneously with cisplatin or daunorubicin and the spreroids exposed for 2 h to the combination, followed by measurement of clonogenic survival.

H460 cell line = assay: Anti-proliferation assay, hypoxia vs normoxia (Table 1A); settings: for IC50: Homo sapiens; for HCR P: ratio of IC50 in normoxia and hypoxia
NCI-H460 cells [3] = assay: Antiproliferation assay - oxygen dependence; type: cell-based, human
Source text: . […] The calculated IC50 values (μM) are tabulated in Table Y1 (H460 cells) or Table Y2 (HT29 cells) below.

MES-SA/Dx5 cells = assay: Antiproliferation assay (Alamar Blue), anoxia vs air; settings: Homo sapiens, MES-SA/Dx5, 2 h
human H460 cells = assay: Clonogenic survival assay, hypoxia vs normoxia (Table 1A); settings: for IC90: Homo sapiens; for HCR C: ratio of IC90 in normoxia and hypoxia
HT29 [4] = assay: Anti-proliferation assay, hypoxia vs normoxia (Table 1B); settings: for IC50: Homo sapiens
[5] = type: physicochemical; settings: glassy carbon, Ag/AgCl reference
HT29 [6] = assay: Clonogenic assay, hypoxia vs normoxia (Table 1B); settings: for IC90: Homo sapiens
HT29 cells = assay: Antiproliferation assay (Alamar Blue), anoxia vs air; settings: Homo sapiens, HT-29, 2 h
[7] = Pharmacokinetics after intravenous or intraperitoneal administration in mice (Table 2B); settings: plasma, 50 mg/kg
DX-5 = assay: Anti-proliferation assay, hypoxia vs normoxia (Table 1B)
NCI-H460 cells [8] = assay: Antiproliferation assay (Alamar Blue), anoxia vs air
[9] = Plasma stability (Table 2B); settings: 30 min
in vivo = settings: 50 mg/kg
[10] = Solubility in saline at room temperature; type: physicochemical; settings: saline or isotonic
NCI-H460 cells [11] = assay: Clonogenic assay - oxygen dependence; settings: Homo sapiens
[12] = system: mouse (MLM) liver microsomal proteins; type: in vitro ADME; settings: Table 2B
[13] = 25 mg/kg i.p., 10% PEG, CD-1 mice
[14] = NCI-H460, read-out: Hypoxia P (proliferation IC50)
[15] = NCI-H460, read-out: Normoxia P (proliferation IC50)
[16] = Homo sapiens, NCI-H460, read-out: IC50 in H460 cells, 0.6% O2
[17] = Homo sapiens, NCI-H460, read-out: IC50 in H460 cells, 1% O2
[18] = Homo sapiens, NCI-H460, read-out: IC50 in H460 cells, Air
[19] = Homo sapiens, NCI-H460, read-out: IC50 in H460 cells, N2
[20] = NCI-H460, read-out: Hypoxia C (clonogenic IC90)
[21] = NCI-H460, read-out: Normoxia C (clonogenic IC90)
[22] = HT-29, read-out: HT29 P H (proliferation IC50, hypoxia)
[23] = HT-29, read-out: HT29 C H (clonogenic IC90, hypoxia)
[24] = CD-1, Balb/c for Compound 1, mouse, ip
[25] = CD-1, Balb/c for Compound 1, mouse, iv
[26] = Homo sapiens, NCI-H460, 2 h, read-out: IC50 H460 Air, air, 2 h exposure
[27] = Homo sapiens, NCI-H460, 2 h, read-out: IC50 H460 Anoxia, anoxia, 2 h exposure
[28] = Homo sapiens, NCI-H460, read-out: IC50 in H460 cells, 0.1% O2

N.N.[Cl][Pt][Cl] [Cisplatin, cis-Diaminedichloroplatinum (II), reference compound]
IC90 ([1]; read-out: IC90 H460 Monolayer 0.6% O2, 2 h exposure, 0.6% O2): 7.7 µM
IC90 ([1]; read-out: IC90 H460 Monolayer Air, 2 h exposure, Air): 7.3 µM
IC90 ([1]; read-out: IC90 H460 Monolayer N2, 2 h exposure, N2): 4.2 µM
% Inhibition vs Group 1 (HT29 xenograft): 24.2%
IC90 ([2]; 2 h exposure, 10% O2): 8 µM
IC50 (spheroids; read-out: IC50 (μM), spheroids, cisplatin combination experiment): 14 µM

Cn1c(COP(N)(=O)N(CCCl)CCCl)cnc1[N+](=O)[O-] (stereo not shown) [Compound 1]
IC50 (H460 cell line; [14]): 0.4 µM
IC50 (H460 cell line; [15]): 72 µM
HCR P (H460 cell line): 180
IC90 ([1]; Homo sapiens, NCI-H460, 2 h, read-out: IC90 H460 Monolayer Air): 75 µM
IC90 ([1]; Homo sapiens, NCI-H460, 2 h, read-out: IC90 H460 Monolayer N2): 0.35 µM
IC50 (NCI-H460 cells [3]; Homo sapiens, NCI-H460, read-out: IC50 in H460 cells, 0.3% O2): 10 µM
IC50 (NCI-H460 cells [3]; [16]): 7 µM
IC50 (NCI-H460 cells [3]; [17]): 50 µM
IC50 (NCI-H460 cells [3]; [18]): 100 µM
IC50 (NCI-H460 cells [3]; [19]): 0.3 µM
IC50 (MES-SA/Dx5 cells; read-out: IC50 MES-SA/Dx5 Air): > 100 µM
IC50 (MES-SA/Dx5 cells; read-out: IC50 MES-SA/Dx5 Anoxia): 1 µM
IC90 (human H460 cells; [20]): 0.35 µM
IC90 (human H460 cells; [21]): 75 µM
HCR C (human H460 cells): 200
HT29 HCR P (HT29 [4]): >2
IC50 (HT29 [4]; [22]): 50 µM
IC50 (HT29 [4]; HT-29, read-out: HT29 P N (proliferation IC50, normoxic)): 100 µM
Reduction Potentials, 100 mV/sec ([5]; scan rate 100 mV/sec): −596 mV
Reduction Potentials, 10,000 mV/sec ([5]; scan rate 10,000 mV/sec): −638 mV
HT29 HCR C (HT29 [6]): >100
IC90 (HT29 [6]; [23]): 0.4 µM
IC90 (HT29 [6]; HT-29, read-out: HT29 C N (clonogenic IC90, normoxic)): 100 µM
IC50 (HT29 cells; read-out: IC50 HT29 Air): > 100 µM
IC50 (HT29 cells; read-out: IC50 HT29 Anoxia): 50 µM
IC90 ([2]; Homo sapiens, NCI-H460, 2 h): > 100 µM
Cmax [7, 24]: 29900 ng/mL
AUC [7, 25]: 12500 ng·h/mL
Cmax [7, 25]: 35000 ng/mL
Vd [7, 25]: 1.48 L/kg
half-life [7, 25]: 15.6 min
half-life ([7]; mouse, ip): 15 min
DX-5 HCR (DX-5): >100
IC50 (DX-5; read-out: DX-5 P H (proliferation IC50, hypoxia)): 1 µM
IC50 (DX-5; read-out: DX-5 P N (proliferation IC50, normoxic)): > 100 µM
IC50 (NCI-H460 cells [8]; [26]): 72 µM
IC50 (NCI-H460 cells [8]; [27]): 0.4 µM
Plasma stability (% at 30 min) [9]: 100%
Cmax (in vivo; Balb/c, mouse, ip): 29900 ng/mL
Tmax (in vivo; Balb/c, mouse, ip): 15 min
AUC (in vivo; Balb/c, mouse, iv): 12500 ng·h/mL
Cmax (in vivo; Balb/c, mouse, iv): 35000 ng/mL
Tmax (in vivo; Balb/c, mouse, iv): 5 min
half-life (in vivo; Balb/c, mouse, iv): 15.3 min

Cn1c([N+](=O)[O-])cnc1COP(=O)(NCCCl)NCCCl [Compound 10]
IC50 (H460 cell line; [14]): 100 µM
IC50 (H460 cell line; [15]): > 100 µM
HCR P (H460 cell line): >1
IC50 (NCI-H460 cells [3]; [28]): > 100 µM
IC50 (NCI-H460 cells [3]; [16]): > 100 µM
IC50 (NCI-H460 cells [3]; [17]): > 100 µM
IC50 (NCI-H460 cells [3]; Homo sapiens, NCI-H460; read-out: IC50 in H460 cells, Air): > 100 µM
IC50 (NCI-H460 cells [3]; Homo sapiens, NCI-H460; read-out: IC50 in H460 cells, N2): > 100 µM
solubility [10]: 10000 µg/mL (≈ 27.8 mM)
IC50 (NCI-H460 cells [8]; [26]): > 100 µM
IC50 (NCI-H460 cells [8]; [27]): ≥ 100 µM

O=[N+]([O-])c1ccc(COP(=O)(NCCCl)NCCCl)o1 [Compound 23]
IC50 (H460 cell line; [14]): 0.04 µM
IC50 (H460 cell line; [15]): 5 µM
HCR P (H460 cell line): 125
IC50 (NCI-H460 cells [3]; [28]): 5 µM
IC50 (NCI-H460 cells [3]; [16]): 6 µM
IC50 (NCI-H460 cells [3]; [17]): 5 µM
IC50 (NCI-H460 cells [3]; [18]): 5 µM
IC50 (NCI-H460 cells [3]; [19]): 0.05 µM
IC90 (NCI-H460 cells [11]; NCI-H460, read-out: IC90 H460 0.6% O2): 0.6 µM
IC90 (NCI-H460 cells [11]; NCI-H460, read-out: IC90 H460 Air): 5 µM
IC90 (NCI-H460 cells [11]; NCI-H460, read-out: IC90 H460 N2): 0.3 µM
IC90 (human H460 cells; [20]): 0.2 µM
IC90 (human H460 cells; [21]): 10 µM
HCR C (human H460 cells): 50
IC50 (HT29 [4]; [22]): 7.5 µM
IC90 (HT29 [6]; [23]): 2 µM
IC50 (HT29 cells; read-out: IC50 HT29 Anoxia): 7.5 µM
clearance ([7]; CD-1 (Compounds 5, 23, 36), Balb/c (Compound 1), mouse, iv): 368 mL/min/kg
AUC ([7]; CD-1, mouse, ip): 3500 ng·h/mL
Cmax [7, 24]: 8500 ng/mL
AUC [7, 25]: 2300 ng·h/mL
Cmax [7, 25]: 7800 ng/mL
Vd [7, 25]: 3.3 L/kg
half-life [7, 25]: 9 min
half-life ([7]; mouse, ip): 9.6 min
Metabolic stability (MLM) (% at 30 min) [12]: 71%
Plasma stability (% at 30 min) [9]: 84%
Cmax (in vivo; CD-1, mouse, ip): 8500 ng/mL
Tmax (in vivo; CD-1, mouse, ip): 5 min
half-life (in vivo; CD-1, mouse, ip): 9.6 min
Cmax (in vivo; CD-1, mouse, iv): 7800 ng/mL
Tmax (in vivo; CD-1, mouse, iv): 5 min
half-life (in vivo; CD-1, mouse, iv): 8.87 min

Cn1c([N+](=O)[O-])cnc1COP(=O)(NCCBr)NCCBr [Compound 73]
solubility [10]: 10000 µg/mL (≈ 22.3 mM)

CC(OP(=O)(NCCBr)NCCBr)c1ncc([N+](=O)[O-])n1C (stereo not shown) [Compound 85]
Cmax [13]: 3930 ng/mL
Tmax [13]: 5.00 min
half-life [13]: 10.0 min
IC50 (NCI-H460 cells [8]; read-out: IC50 H460 Anoxia, anoxia, 2 h exposure): 0.7 µM

Cn1c([N+](=O)[O-])cnc1COP(=O)(N(CCCl)CCCl)N(CCCl)CCCl [Compound 155]
solubility [10]: < 1000 µg/mL

COc1cccc2c1C(=O)c1c(O)c3c(c(O)c1C2=O)C[C@@](O)(C(C)=O)C[C@@H]3O[C@H]1C[C@H](N)[C@H](O)[C@H](C)O1 [Daunorubicin, reference compound]
IC90 ([1]; Homo sapiens, NCI-H460, 2 h, read-out: IC90 H460 Monolayer (oxygen column not identifiable)): 0.16 µM
IC90 ([2]; Homo sapiens, NCI-H460, 2 h): 19 µM
IC50 (spheroids; Homo sapiens, read-out: IC50 (μM), spheroids, daunorubicin combination experiment): 17 µM
